{"source": "paper PMC4848641", "about": "“The Scorpion Toxin Analogue BmKTX-D33H as a Potential Kv1.3 Channel-Selective Immunomodulator for Autoimmune Diseases” (Toxins, 2016)", "key": {"Kv1.3 channel [1]": {"system": "Kv1.3 channel", "conditions": "ref [29], cited from earlier work", "excerpt": "The venomous scorpions, which have lived on earth for over 400 million years, rely on their venoms for their efficient defense and capture strategy. During their molecular evolution, scorpions produced hundreds of peptide-based toxins in their venoms, typically targeting ion channels with a high degree of molecular diversity. Accordingly, scorpion venoms have been considered as invaluable resources of ion channel inhibitors. […] Because ADWX-1 is a potent blocker of the […] channel (IC50 value of 0.6 nM), we further investigated the pharmacological profile of BmKTX-D33H. || The most remarkable feature of BmKTX-D33H is its sought-after selectivity towards the Kv1.3 channel. Indeed, improving the selectivity of scorpion toxins (especially Kv1.1 versus Kv1.3 channel subtypes) still remains a serious challenge. […] For ADWX-1 ..."}, "Jurkat cells [2]": {"system": "Jurkat cells", "excerpt": "(§1) Jurkat E6-1 cells were obtained from the American Tissue Culture Collection (ATCC, Manassas, VA, USA) and cultured in RPMI-1640 supplied with 10% fetal bovine serum (FBS).\n(§2) Peripheral blood (PB) obtained from four healthy volunteers was approved by the Ethics Committee of the College of Life Sciences in Wuhan University (Permit number: ECCLS20120076, approved at 3 May 2012). Ficoll gradients were used to isolate mononuclear cells from PB. The CD3^+ T cells were then purified using EasySep Isolation Kit (StemCell Technologies, Vancouver, BC, Canada), and cultured at density of 5 × 10^5 cells per cm^2 in RPMI-1640 medium supplemented with 2 mM glutamine, and 10% FBS. […]\n(§3) The Jurkat cells or peripheral blood CD3^+ cells were seeded in round-bottom plates (Corning-costar) at 5 × 10^5 cells per cm^2. […] The cells were cultured for 48 h, and cell proliferation was measured using CellTiter 96 AQueous One Solution Cell Proliferation Assay Kit (Promega, Madison, WI, USA) in accordance with the manufacturer’s guide. Absorbance was read at a wavelength of 490 nm.\n(§4) The IL-2, IFN-γ, and TNF-α levels in supernatants of stimulated cells were measured with ELISA kit (Dakewei, Shenzhen, China) following the manufacturer’s protocol. Absorbance was measured with an automatic plate reader at a wavelength of 450 nm with reference at 630 nm."}, "CD3^+ T cells [3]": {"system": "CD3^+ T cells", "conditions": "pre-incubation for 1 h before activation; anti-CD3/CD28 beads; ELISA", "protocol": "as §2, with “FBS. All the T-cells were cultured at a temperature of 37 °C in a humidified 95% air and 5% CO2 atmosphere.” for “FBS.”\nas §3, §4"}, "Kv1.3 channels": {"system": "Kv1.3 channels", "assay": "Whole-cell patch-clamp, Kv1.3 channel currents", "assay_type": "cell-based", "conditions": "10 pM, 200 ms depolarizing steps from holding potential −80 mV to +50 mV, pH 7.4, means ± S.E. of at least three experiments", "protocol": "(§5) Whole cell patch-clamp recordings of Kv1.3 channel were obtained from human T cells. Electrophysiological experiments of other assayed potassium channels were performed on HEK293 cells transfected with cDNA encoding Kv1.1, Kv1.2, Kv1.3, Kv7.1, Kv11.1, KCa2.2, KCa2.3, and KCa3.1 channels using TurboFect Reagent (ThermoSci., Waltham, MA, USA). The cDNAs were subcloned into the Xho I/Bam HI sites of pIRES2-EGFP, a bicistronic expression vector (Clontech, Mountain View, CA, USA) coexpressed with enhanced GFP. The constructs were verified by DNA sequencing. Currents were recorded on eGFP-expression positive cells one to three days post-transfection. Electrophysiological experiments were performed using protocols according to previously published references. Cells were bathed with mammalian Ringer’s solution: 5 mM KCl, 140 mM NaCl, 2 mM CaCl2, 1 mM MgCl2, […], 10 mM D-glucose (adjusted to pH 7.4 with NaOH). A multichannel microperfusion system MPS-2 (INBIO Inc, Wuhan, China) was used to exchange the external recording bath solution. […] Membrane currents were measured with an EPC 10 patch clamp amplifier (HEKA Elektronik, Lambrecht/Pfalz, Germany) interfaced to a computer running acquisition and analysis software (Pulse, v8.80, HEKA Elektronik, Lambrecht/Pfalz, Germany). […]"}, "Kv1.2": {"system": "Kv1.2", "assay": "Whole-cell patch-clamp, Kv1.2 channel currents (transfected HEK293 cells)", "assay_type": "cell-based", "conditions": "micromolar concentration (1 μM), pH 7.4", "protocol": "as §5"}, "[4]": {"system": "Kv1.3 channels on the freshly isolated CD3^+ T cells", "assay": "Whole-cell patch-clamp, Kv1.3 currents in freshly isolated human CD3^+ T cells", "assay_type": "cell-based", "conditions": "pH 7.4, means ± S.E. of at least three experiments", "protocol": "as §5"}, "KCa3.1": {"system": "KCa3.1", "assay": "Whole-cell patch-clamp, KCa3.1 channel currents (transfected HEK293 cells)", "assay_type": "cell-based", "conditions": "micromolar concentration (1 μM), pH 7.4", "protocol": "as §5"}, "Kv11.1": {"system": "Kv11.1", "assay_type": "cell-based", "conditions": "micromolar concentration (1 μM); HEK293 cells, patch-clamp, pH 7.4", "protocol": "as §5"}, "KCa2.3": {"system": "KCa2.3", "assay": "Whole-cell patch-clamp, KCa2.3 channel currents (transfected HEK293 cells)", "assay_type": "cell-based", "conditions": "micromolar concentration (1 μM), pH 7.4", "protocol": "as §5"}, "Jurkat cells [5]": {"system": "Jurkat cells", "assay_type": "cell-based", "conditions": "48 h post-stimulation with 100 ng/mL PMA and 1 mM Ionmycin; CellTiter 96 AQueous One Solution, 490 nm", "excerpt": "as §1\nas §2, with “FBS. All the T-cells were cultured at a temperature of 37 °C in a humidified 95% air and 5% CO2 atmosphere. The Jurkat cells were stimulated with 100 ng/ml phorbol ester (PMA) (Sigma-Aldrich, Munich, Germany) and […] Ionmycin (ION) (Sigma-Aldrich, Munich, Germany).” for “FBS.”\nas §3"}, "Kv1.7": {"system": "Kv1.7", "assay": "Whole-cell patch-clamp, Kv1.7 (Kv7.1 in legend and methods) channel currents (transfected HEK293 cells)", "assay_type": "cell-based", "conditions": "micromolar concentration (1 μM), pH 7.4", "protocol": "as §5"}, "Lewis rats": {"system": "Lewis rats", "assay": "Active delayed-type hypersensitivity (DTH), ear swelling", "assay_type": "in vivo", "conditions": "female Lewis rats; 100 μg/kg, single subcutaneous injection at ovalbumin challenge; 4, 6, and 24 h after challenge; vs vehicle control", "protocol": "The animal trial was approved by the Animal Use and Care Committee of the Wuhan University. Female Lewis rats (9–10 weeks of age) were purchased from Charles River Laboratories and housed under pathogen-free conditions. Active DTH was induced as describe previously by immunizing rats against antigen of ovalbumin (Sigma-Aldrich, Munich, Germany) emulsified with complete Freund’s adjuvant (Sigma-Aldrich, Munich, Germany). The emulsion was injected subcutaneously into Lewis rats in order to prime the immune system and develop memory T cells. Seven days later, the rats were challenged again with ovalbumin (20 μg in 20 μL of saline solution) in the pinna of one ear (challenged ear). The other side of ear received saline solution as challenge control. Rats in control group received a single subcutaneous injection of 0.5 mL vehicle (saline solution) in the scruff of the neck, at the time of second-challenge. Whereas, rats in drug-treatment group received 100 μg/kg BmKTX-D33H (in 0.5 mL vehicle) administrated using the same method. The change for thickness of ear (at 4, 6, and 24 h post-challenge) was measured as an indication of the inflammatory reaction and DTH severity."}, "Kv1.3 channel [6]": {"system": "Kv1.3 channel", "assay": "Selectivity towards the Kv1.3 channel over other K^+ channels", "assay_type": "cell-based", "conditions": "versus Kv1.1, Kv1.2, Kv1.7 (Kv7.1), Kv11.1, KCa2.2, KCa2.3, and KCa3.1", "protocol": "as §5"}, "KCa2.2": {"system": "KCa2.2", "assay": "Whole-cell patch-clamp, KCa2.2 channel currents (transfected HEK293 cells)", "assay_type": "cell-based", "conditions": "micromolar concentration (1 μM), pH 7.4", "protocol": "as §5"}, "CD3^+ T cells [7]": {"system": "CD3^+ T cells", "assay_type": "cell-based", "conditions": "human CD3^+ T cells, anti-CD3/CD28 beads, 48 h; CellTiter 96 AQueous One Solution, 490 nm", "protocol": "Peripheral blood (PB) obtained from four healthy volunteers was approved by the Ethics Committee of the College of Life Sciences in Wuhan University (Permit number: ECCLS20120076, approved at 3 May 2012). Ficoll gradients were used to isolate mononuclear cells from PB. The CD3^+ T cells were then purified using EasySep Isolation Kit (StemCell Technologies, Vancouver, BC, Canada), and cultured at density of 5 × 10^5 cells per cm^2 in RPMI-1640 medium supplemented with 2 mM glutamine, and 10% FBS. All the T-cells were cultured at a temperature of 37 °C in a humidified 95% air and 5% CO2 atmosphere. The Jurkat cells were stimulated with 100 ng/ml phorbol ester (PMA) (Sigma-Aldrich, Munich, Germany) and […] Ionmycin (ION) (Sigma-Aldrich, Munich, Germany). The CD3^+ T cells were stimulated with anti-CD3/CD28 antibodies beads (Life Technologies, Waltham, MA, USA). BmKTX-D33H (ranged from 0.1 to 100 nM) was added for 1 h prior to stimulation.\nas §3"}, "Kv1.1": {"system": "Kv1.1", "assay": "Whole-cell patch-clamp, Kv1.1 channel currents (transfected HEK293 cells)", "assay_type": "cell-based", "conditions": "1 μM, −80 mV to +50 mV, pH 7.4, means ± S.E. of at least three experiments", "protocol": "as §5"}}, "note": "“Also recorded” adds a separate entry of the source. Where a SMILES comes first, the peptide text is derived from it. Bridges are numbered along the chain shown (N, C = ends).", "data": [{"smiles": "CC[C@H](C)[C@H](NC(=O)CNC(=O)[C@@H](N)C(C)C)C(=O)N[C@@H](CC(N)=O)C(=O)N[C@H](C(=O)N[C@@H](CCCCN)C(=O)N[C@H]1CSSC[C@@H]2NC(=O)[C@H](CCCCN)NC(=O)CNC(=O)[C@H](Cc3ccccc3)NC(=O)[C@H](CCCNC(=N)N)NC(=O)[C@H](CCSC)NC(=O)CNC(=O)[C@H](C)NC(=O)[C@H](CC(=O)O)NC(=O)[C@H](CCCCN)NC(=O)[C@@H]3CSSC[C@@H](C(=O)N[C@H](C(=O)N4CCC[C@H]4C(=O)N[C@@H](CCCCN)C(=O)O)[C@@H](C)O)NC(=O)[C@H](Cc4c[nH]cn4)NC(=O)[C@H](CSSC[C@H](NC(=O)[C@H](CCC(N)=O)NC(=O)CNC(=O)[C@H](CO)NC(=O)[C@H](Cc4c[nH]cn4)NC(=O)[C@H](CCCCN)NC1=O)C(=O)N[C@@H](CC(C)C)C(=O)N[C@@H](CCCCN)C(=O)N1CCC[C@H]1C(=O)N3)NC(=O)[C@H](CCCCN)NC(=O)CNC(=O)[C@H](CC(N)=O)NC(=O)[C@H]([C@@H](C)CC)NC2=O)C(C)C", "note": "[BmKTX-D33H] (H-VGINVKCKHSGQCLKPCKDAGMRFGKCINGKCHCTPK-OH; disulfide 7-27, 13-32, 17-34; N-terminus and C-terminus assumed)", "values": [{"measurement": "potency on the Kv1.3 channel compared with wild-type BmKTX", "setting": "Kv1.3 channel [1]; compared to wild-type BmKTX", "result": "increased potency (as compared to wild-type BmKTX)"}, {"measurement": "IC50", "setting": "Kv1.3 channel [1]", "result": 0.0154, "unit": "nM"}, {"measurement": "IC50", "setting": "Jurkat cells [2]; 33 h", "result": "23.9 ± 20.1", "unit": "nM"}, {"measurement": "IL-2 expression of Jurkat cells", "setting": "Jurkat cells [2]; stimulated by PMA + ION, ELISA", "result": "significantly reduced"}, {"measurement": "IFN-γ, TNF-α and IL-2 secretion of human T cells", "setting": "CD3^+ T cells [3]", "result": "robust dose-dependent reduction"}, {"measurement": "inhibition of Kv1.3 channel currents", "setting": "Kv1.3 channels", "result": "56.0% ± 2.0%"}, {"measurement": "sensitivity of Kv1.2 channel", "setting": "Kv1.2", "result": "much less sensitive"}, {"measurement": "inhibition of Kv1.3 currents in CD3^+ T cells", "setting": "[4]; 1 nM", "result": "63.3% ± 2.9%"}, {"measurement": "inhibition of Kv1.3 currents in CD3^+ T cells", "setting": "[4]; 10 nM", "result": "90.7% ± 2.1%"}, {"measurement": "sensitivity of KCa3.1 channel", "setting": "KCa3.1", "result": "much less sensitive"}, {"measurement": "sensitivity of Kv11.1 channel", "setting": "Kv11.1", "result": "much less sensitive"}, {"measurement": "sensitivity of KCa2.3 channel", "setting": "KCa2.3", "result": "much less sensitive"}, {"measurement": "proliferation (growth) of Jurkat cells", "setting": "Jurkat cells [5]", "result": "significantly inhibited; also recorded: Proliferation of activated Jurkat cells was suppressed"}, {"measurement": "sensitivity of Kv1.7 channel", "setting": "Kv1.7", "result": "much less sensitive"}, {"measurement": "DTH response, change of ear thickness", "setting": "Lewis rats", "result": "significantly improved the delayed-type hypersensitivity (DTH) responses; also recorded: changes of ear thickness were significantly reduced; also recorded: dramatically reduced the in vivo DTH responses"}, {"measurement": "selectivity towards the Kv1.3 channel as compared to other K^+ channels", "setting": "Kv1.3 channel [6]", "result": "more than 1000 fold"}, {"measurement": "sensitivity of KCa2.2 channel", "setting": "KCa2.2", "result": "much less sensitive"}, {"measurement": "proliferation (growth) of CD3^+ cells", "setting": "CD3^+ T cells [7]", "result": "suppressed the growth of CD3^+ cells; also recorded: Suppression of cytokine production and in vitro proliferation"}, {"measurement": "inhibition of Kv1.1 channel currents", "setting": "Kv1.1", "result": "about 46.6% ± 2.0%"}]}]}
